1 compound from patent publication US7098204B2 (C.N.R.S., priority 1999, dated 2006) can be followed below.

For one assay, the target named is protein kinase C α (Homo sapiens, UniProt P17252). In words: protein kinase C α assay. Type of assay: biochemical. Particulars: 15 μM ATP. On the procedure: (§1) Kinases activities were assayed in Buffer A or C (unless otherwise stated), at 30° C., at a final ATP concentration of 15 μM. Blank values were subtracted and activities calculated as pmoles of phosphate incorporated for a 10 min. incubation (usually expressed in % of the maximal activity, i.e. without inhibitors). Controls were performed with appropriate dilutions of Me2SO. In some cases phosphorylation of the substrate was assessed by autoradiography after SDS-PAGE. IC50 values were estimated from the dose-response curves. • CDK1/cyclin B was extracted in homogenisation buffer from M phase starfish (Marthasterias glacialis) oocytes and purified by affinity chromatography on p9^CKShs1-Sepharose beads, from which it was eluted by free p9^CKShs1 as described. The kinase activity was assayed in buffer C, with 1 mg histone H1/ml, in the presence of 15 μM [γ-^32P] ATP (3,000 Ci/mmol; 1 mCi/ml) in a final volume of 30 μl. After 10 min. incubation at 30° C., 25 μl aliquots of supernatant were spotted onto 2.5×3 cm pieces of Whatman P81 phosphocellulose paper, and, 20 sec. later, the filters were washed five times (for at least 5 min. each time) in a solution of 10 ml phosphoric acid/liter of water. The wet filters were counted in the presence of 1 ml ACS (Amersham) scintillation fluid. • GSK-3β was either purified from rabbit muscle or expressed in and purified from insect Sf9 cells. […]

The next assay deals with HT29-18-C1 cells. In words: Flow cytometric cell cycle analysis, HT29-18-C1. Type of assay: cell-based, human. On the procedure: Cell culture and treatments. HT29-18-C1, a subclone of the human colon adenocarcinoma cell line HT29, was cultured in Dulbecco's modified Eagle's medium (Gibco-BRL) supplemented with 10% FCS, 2 mM L-glutamine (Eurobio) and […] gentamycin (Gibco-BRL) at 37° C., 10% CO2. Cells were synchronized by serum deprivation for 48 h. They were then released from growth arrest by the addition of 5% fetal calf serum (FCS). HD, prepared in DMSO, was added immediately to the medium, for 24 h and at final concentrations ranging from 0 to 80 μM. In some experiments HD was added 22 h after serum addition for an additional 24 h. In other experiments HD was added to unsynchronised cells. Cells were then washed and cultured in 5% FCS medium and counted or analysed by FACS at different times.
Cell counts and flow cytometric cell cycle analysis. Cell were counted with a hemocytometer. Cell cycle distribution was analysed by flow cytometry. […] The stained cells were analysed on a FACScan cytofluorimeter using the cellFit Software program (Becton Dickinson Immunocytometry Systems).
The results concerning the cell cycle distribution of HD-treated cells are given on FIG. 10A. […] Cells were then fixed and their cell cycle phase status was determined by FACscan analysis as described in the Experimental Procedures section. […] Cell cycle distribution was analysed every 24 h for a 72 h period. […]
Background: A flow cytometer gives signals particle by particle.

The target of the next assay is cdk2/cyclin E (Homo sapiens, UniProt P24941). Nature of the assay: cdk2/cyclin E kinase assay. The assay is classed as biochemical. Particulars: 15 μM ATP. On the procedure: as §1
The next assay has as its target GSK-3β (Mus musculus, UniProt Q9WV60). Nature of the assay: MAP-1B phosphorylation by GSK-3 in cerebellar granule cells. Type of assay: cell-based, mice. How it is done: Cerebellar granule cells were isolated from newborn mice and purified according to the method of Hatten using Percoll gradients. Cells were plated onto dishes coated with poly-D-lysine (100 μg/ml) and laminin (50 μg/ml) and grown in serum-free medium for 1 day, the cultures were then treated with HD (1–100 μM) for 20 h. Cultures were fixed with 4% formaldehyde in PBS and stored in PBS at 4° C. Cells were permeabilised with 100% methanol and incubated with primary antibodies against GAP-43 and MAP-1B-P (SMI-31, Affiniti) overnight at 4° C. FITC and Texas Red conjugated secondary antibodies were used (Vector). For western blot analysis, cells were lysed in sample buffer and analysed by 8% SDS-PAGE. Proteins were transferred to nitrocellulose membranes and incubated with an antibody to MAP-1B-P (SMI-31) diluted in block solution (0.1% Tween-20, 3% dried skimmed milk in TBS) for 2 h at room temperature. HRP-conjugated secondary antibodies (Amersham) were used and proteins were visualised using the ECL system (Pierce). Blots were scanned using a flat bed scanner (UMAX Astra 1200S).

Structures are written as SMILES.

Sequence of GSK-3β (Q9WV60 whole entry): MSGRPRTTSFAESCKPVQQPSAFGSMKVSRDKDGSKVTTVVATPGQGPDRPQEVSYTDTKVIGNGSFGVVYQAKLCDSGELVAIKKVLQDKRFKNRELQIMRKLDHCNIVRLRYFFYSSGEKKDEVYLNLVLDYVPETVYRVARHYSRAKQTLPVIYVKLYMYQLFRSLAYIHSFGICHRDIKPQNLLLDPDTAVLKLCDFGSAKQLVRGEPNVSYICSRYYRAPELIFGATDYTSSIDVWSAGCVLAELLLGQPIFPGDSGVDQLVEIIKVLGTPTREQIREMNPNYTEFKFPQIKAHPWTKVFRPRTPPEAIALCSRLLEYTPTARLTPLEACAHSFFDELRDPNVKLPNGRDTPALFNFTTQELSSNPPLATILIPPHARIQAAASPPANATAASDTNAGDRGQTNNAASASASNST

Take `NC1=NC(=O)C(=C2CCNC(=O)c3[nH]c(Br)cc32)N1` [hymenialdisine, 4-(2-amino-4-oxo-2-imidazolin-5-ylidene)-2-bromo-4,5,6,7-tetrahydropyrrolo (2,3-c) azepine-8-one]: the values for the IC50 against protein kinase C α and on cdk2/cyclin E were 700 nM and 40 nM, respectively. Moreover, the cell cycle distribution result with HT29-18-C1 cells (10 μM HD added 22 hr after serum, analysed 14 h later) was “accumulation of cells in G2/M”; in the assay on HT29-18-C1 cells (HD added with serum at time 0, 24 h), “accumulation of cells in S phase”. Also, the “cell morphology and distribution of MAP-1B-P” value at GSK-3β (1 μM, 10 μM, 25 μM, 20 h) was “no noticeable effect”. For the same compound, the “MAP-1B-P in axonal processes” value on GSK-3β (50 μM, 20 h) is recorded as “loss of MAP-1B-P from most of the axonal processes”; on GSK-3β (100 μM, 20 h) it was “loss of MAP-1B-P from processes”. Moreover, at GSK-3β (increasing doses 1–100 μM), the “MAP-1B-P by Western blotting” value is reported as “loss of MAP-1B-P in a dose-dependent manner”.
